In patent US20240238232A1, “COMPOSITIONS AND METHODS FOR THE REDUCTION OR TREATMENT OF INSULIN RESISTANCE AND METABOLIC CONDITIONS” (AXCELLA HEALTH INC., priority 2018, published 2024):
“And” between values parts separate entries of the source, which are not always exact repeats. Equal entries are not always repeated. Structures can show the parent of a compound that is named as a salt. Marks after values point to notes of the source that are not given here.

Experiments:
[1] = system: B6.Cg-Lep^ob/J (ob/ob) mouse model; assay: Oral glucose tolerance test (OGTT) in ob/ob mice, Example 1; assay type: in vivo; settings: for Blood glucose levels raw data: individual ob/ob mice, OGTT, metformin 450 mg/kg, hydrochloride; for Mean blood glucose level: ob/ob mice OGTT Day 3, metformin hydrochloride 450 mg/kg QD PO
Protocol: Amino Acid Composition A-1 and metformin were tested for their ability to affect glucose tolerance in a genetically obese B6.Cg-Lep^ob/J (ob/ob) mouse model (Maida A, et al., 2010, PMID: 20972533).
Eight-week-old male ob/ob mice were subjected to treatment of test articles (Amino Acid Composition A-1 and metformin) followed by oral glucose tolerance test (OGTT) on Day 3. Mice were randomized by body weight and unfasted blood glucose on Day −1. Body weight was recorded daily in the morning before AM dosing on Day 1, Day 2, and Day 3. Test articles were dosed by oral gavage at 10 ml/kg. Dosage of a test article was calculated based on daily body weight. Treatment schedule and dose are listed in the following section (Table 34). AM doses were administered at 0700, and PM doses were administered at 1800. Oral glucose tolerance test (OGTT) was performed after 6-hour fasting on Day 3.
Mice were fasted for 6 hours prior to OGTT test. Food was removed at 0700 hours on Day 3; water was provided during fasting. Blood samples were collected from tail snip or facial puncture at −30 min (relative to OGTT) into K2EDTA tubes for baseline glucose and blood biochemistry (insulin, triglyceride, and cholesterol). Blood glucose was measured by a glucometer (SDI StatStrip Xpress or equivalent). Plasma was collected in K2EDTA and saved at −80° C.
Mice were bled for baseline glucose and plasma at −30 min. Test articles were then dosed by oral gavage at −30 min. Glucose was administered per os (P.O.) at a dosage of 2.0 g/kg body weight. Blood glucose levels were measured at 0 min immediately prior to glucose injection and then at 15, 30, 60, 120 and 240 minutes thereafter (shown as 0.25, 0.5, 1, 2, and 4 hours in Table 35 below).
Data are mean±standard deviation (stdev). (p values by Dunnett's multiple comparisons: **p<0.005 compared to vehicle control; ***p<0.001 compared to vehicle control; ****p<0.0005 compared to vehicle control.)

[2] = system: B6.Cg-Lep^ob/J (ob/ob) mouse model; assay: as above; assay type: in vivo; settings: timepoint −1 hours
ob/ob mice; C57/BL6 = settings: cited from earlier work

**Q.** For CN(C)C(=N)N=C(N)N [Metformin, Metformin hydrochloride], which “Blood glucose levels raw data” value ([1]; timepoint 0 hours) is on record?
**A.** The value was 274 mg/dL and 234 mg/dL and 220 mg/dL and 129 mg/dL and 140 mg/dL.

**Q.** What about the “Blood glucose levels raw data” value ([1]; timepoint 0.25 hours) of the same compound?
**A.** Its value is 387 mg/dL and 397 mg/dL and 427 mg/dL and 310 mg/dL and 247 mg/dL.

**Q.** And the “Blood glucose levels raw data” value ([1]; timepoint 0.5 hours)?
**A.** The value was 462 mg/dL and 439 mg/dL and 482 mg/dL and 307 mg/dL and 261 mg/dL.

**Q.** And the “Blood glucose levels raw data” value ([1]; timepoint 1 hours)?
**A.** Its value is 365 mg/dL and 399 mg/dL and 431 mg/dL and 239 mg/dL and 154 mg/dL.

**Q.** And the “Blood glucose levels raw data” value ([1]; timepoint 2 hours)?
**A.** Its value is 154 mg/dL and 183 mg/dL and 219 mg/dL and 124 mg/dL and 111 mg/dL.

**Q.** And the “Blood glucose levels raw data” value ([1]; timepoint 4 hours)?
**A.** Its value is 118 mg/dL and 93 mg/dL and 155 mg/dL and 101 mg/dL and 80 mg/dL.

**Q.** What about the “Mean blood glucose level” value ([1]; timepoint 0 hours) of the same compound?
**A.** Its value is 199.4 mg/dL.

**Q.** And the “Mean blood glucose level” value ([1]; timepoint 0.25 hours)?
**A.** Its value is 353.6**** mg/dl.

**Q.** And the “Mean blood glucose level” value ([1]; timepoint 0.5 hours)?
**A.** Its value is 390.2*** mg/dl.

**Q.** And the “Mean blood glucose level” value ([1]; timepoint 1 hours)?
**A.** Its value is 317.6 mg/dL.

**Q.** What about the “Mean blood glucose level” value ([1]; timepoint 2 hours) of the same compound?
**A.** Its value is 158.2 mg/dL.

**Q.** And the “Mean blood glucose level” value ([1]; timepoint 4 hours)?
**A.** The value was 109.4 mg/dL.

**Q.** And the “Blood glucose levels raw data” value ([2]; individual ob/ob mice, OGTT, metformin 450 mg/kg, hydrochloride)?
**A.** Its value is 265 mg/dL and 248 mg/dL and 183 mg/dL and 120 mg/dL and 166 mg/dL.

**Q.** What about the “Mean blood glucose level” value ([2]; ob/ob mice OGTT Day 3, metformin hydrochloride 450 mg/kg QD PO) of the same compound?
**A.** The value was 196.4 mg/dL.

**Q.** What about the “Glucose tolerance (OGTT)” value (ob/ob mice; C57/BL6; C57/BL6, single dose) of the same compound?
**A.** The value was “improves glucose tolerance”.

**Q.** And the Plasma glucose (ob/ob mice; C57/BL6; ob/ob mice (Cool B, et al., 2006))?
**A.** Its Plasma glucose is “lowers plasma glucose”.

**Q.** And the NAFLD (ob/ob mice; C57/BL6; ob/ob mice (Lin H Z et al., 2000; Cool B, et al., 2006))?
**A.** Its NAFLD is “reverses NAFLD”.
